From ChEMBL document CHEMBL1129308, “Design and synthesis of 2-naphthoate esters as selective dopamine D4 antagonists” (J Med Chem, 1996)

Key:
[1] = target: T1, D(4) dopamine receptor (Homo sapiens, UniProt P21917); assay: Binding affinity against cloned human Dopamine receptor D4 using [3H]nemonapride as radioligand
T1 sequence (P21917 whole entry): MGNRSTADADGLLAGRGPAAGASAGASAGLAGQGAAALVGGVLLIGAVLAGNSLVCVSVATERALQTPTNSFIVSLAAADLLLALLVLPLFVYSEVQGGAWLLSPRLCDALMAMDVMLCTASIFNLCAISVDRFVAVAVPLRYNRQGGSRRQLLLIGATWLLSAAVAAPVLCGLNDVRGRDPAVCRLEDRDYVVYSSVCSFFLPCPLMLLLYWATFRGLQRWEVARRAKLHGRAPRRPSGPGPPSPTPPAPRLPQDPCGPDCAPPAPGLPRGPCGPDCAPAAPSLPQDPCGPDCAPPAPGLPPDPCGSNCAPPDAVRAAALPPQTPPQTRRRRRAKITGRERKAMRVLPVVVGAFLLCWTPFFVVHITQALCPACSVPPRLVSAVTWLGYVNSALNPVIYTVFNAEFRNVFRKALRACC

[2] = target: Dopamine receptors; D2 & D4 (Homo sapiens) (UniProt P14416+P21917); assay: Selectivity ratio for binding affinity between D4 and D2 receptor; assay type: protein assay
Sequence of Dopamine receptors; D2 & D4 (Homo sapiens) (P14416 whole entry, looked up, one chain of several): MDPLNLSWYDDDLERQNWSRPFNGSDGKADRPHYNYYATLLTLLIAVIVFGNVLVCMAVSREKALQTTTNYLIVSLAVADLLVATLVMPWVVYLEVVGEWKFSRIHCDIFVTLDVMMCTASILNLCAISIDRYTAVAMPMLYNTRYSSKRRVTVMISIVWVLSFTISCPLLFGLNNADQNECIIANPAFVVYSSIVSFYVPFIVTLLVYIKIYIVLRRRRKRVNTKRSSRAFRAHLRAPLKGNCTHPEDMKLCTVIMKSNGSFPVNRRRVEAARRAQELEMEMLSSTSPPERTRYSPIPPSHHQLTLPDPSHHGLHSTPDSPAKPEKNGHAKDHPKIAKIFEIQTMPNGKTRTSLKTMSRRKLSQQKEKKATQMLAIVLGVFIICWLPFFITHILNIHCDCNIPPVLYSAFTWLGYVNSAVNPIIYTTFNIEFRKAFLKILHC

[3] = target: D(2) dopamine receptor (Homo sapiens, UniProt P14416); assay: Binding affinity against cloned human Dopamine receptor D2 (long) using [125I]iodosulpiride as radioligand
Sequence of D(2) dopamine receptor (P14416 whole entry): as the sequence (P14416 whole entry, looked up, one chain of several) above

Ki [1] [nM]	Selectivity [2]	Ki [3] [nM]	Compound
20	6	126	COc1cc2ccccc2cc1C(=O)NCC1CCN(Cc2ccccc2)CC1
25.1	80	2000	O=C(OCC1CCN(Cc2ccccc2)CC1)c1ccc(Cl)cc1
31.6	30	1000	COc1cc2ccccc2cc1COCC1CCN(Cc2ccccc2)CC1
200	6	1260	COc1cc2ccccc2cc1CC(=O)CC1CCN(Cc2ccccc2)CC1
31.6	12	398	COc1cc2ccccc2cc1C(=O)CCC1CCN(Cc2ccccc2)CC1
5.01	630	3160	COc1cc2ccccc2cc1C(=O)OCC1CCN(Cc2ccccc2)CC1
3.98	10	39.8	COc1cc2ccccc2cc1C(=O)NC1CCN(Cc2ccccc2)C1 (stereo not given)
25.1	60	1580	COc1cc2ccccc2cc1OCCC1CCN(Cc2ccccc2)CC1
20	500	10000	COc1cc2ccccc2cc1C(=O)OCC1CCN(Cc2ccccc2)C1 (stereo not given)
6.31	1260	7940	COc1cc2ccccc2cc1OC(=O)CC1CCN(Cc2ccccc2)CC1
